Laboratory results from US20240350521A1, “COMPOSITIONS AND METHODS FOR PREVENTING OR TREATING PRECOCIOUS PUBERTY” (TAIPEI MEDICAL UNIVERSITY, priority 2023, published 2024).

What was measured:
[1] = tested on: female neonate Sprague-Dawley rats; assay: Animal Experiment 2: serum estrogen level on sacrifice day; format: in vivo
From the text: In this experiment, rats were raised until the model group (danazol) experienced vaginal opening. At that time, all of the rats were then sacrificed to (1) compare the differences between serum estrogen and luteinizing hormone (LH) levels; (2) compare the mRNA expression of GnRHa, k, Lin28a, Lin28b, let7a, let7b, GPR54, netrin-1, UNC5C, and MKRN3 in the hypothalamus using qPCR; and (3) compare the number of GnRH and kisspeptin neurons in the hypothalamus using immunohistochemistry (IHC).
(§1) Overnight fasting blood samples for glucose measurement were collected from tail veins two days before sacrifice. Blood samples for LH, estrogen, and other routine laboratory tests were collected from the abdominal aorta when sacrificing. Insulin resistance was then estimated using the triglyceride glucose (TyG) index. […] Also, the fecal samples were collected during these days to analyze gut microbiome, short chain fatty acids (SCFA), and reserve material for fecal microbiota transplantation (FMT) in Experiment 3.
Blood glucose in rodents was measured using the BioSystem glucose GOD/Peroxidase kit. LH levels were measured using the Enzo LH ELISA kit following the manufacturer's instructions. Samples for estrogen and other routine test were sent to a clinical laboratory.

[2] = tested on: female neonate Sprague-Dawley rats; assay: Animal Experiment 1: puberty-related time points (vaginal opening, estrous cycle) in danazol-induced PP rats; format: in vivo
Description: A total of 129 female neonate Sprague-Dawley rats were housed in a humidity (67±1.5%) and temperature (24±2° C.)-controlled housing room of the Taipei Medical University's Laboratory Animal Center with a 12-hour light/dark cycle. They had free access to food and water.
(§2) Such rats were divided into Control, Danazol, MAG (monoammonium glycyrrhizinate), Danazol+Low-MAG (100 μg/kg/day), Danazol+Medium-MAG (200 μg/kg/day), and Danazol+High-MAG (400 μg/kg/day) groups. The day at birth was termed postnatal day (PND). Litters belonging to danazol-induced PP groups were given a single subcutaneous injection of 300 μg danazol (Sigma-Aldrich) dissolved in 30 μL vehicle composed of propylene glycerol and ethanol (1:1)^[7]. MAG was administered using oral gavage since PND 13. Offspring were weaned onto a normal chow diet and water at PND 21. Body weight was measured daily. The rats were examined daily for the vaginal opening, which was considered as a marker of pubertal onset.
(§3) MAG was prepared freshly at the beginning of the experiment daily by mixing MAG powder with sterilized water. The volume fed each day was calculated based on the MAG solubility (20 mg/mL), maximum volume tolerated (10 mL/kg/time), intended dose (either 100, 200, or 400 μg/kg/day), and the rat's body weight on that day. Those who were not in the MAG-fed groups were fed with the same volume of sterilized water. MAG doses were chosen based on existing guidelines for safe dosage in humans and previous work in animals. In more detail, the doses were about 5 to 20 times lower than the no-observed-adverse-effect-levels (NOAELs)^[8]. They reflect the normal physiological intake of this sweetener.
In this experiment, rats were fed with MAG daily until the end of experiment to maintain the long-term effect of drug tested. Vaginal smear was performed daily until they established three consecutive regular 4- or 5-day-cycles. The day of vaginal opening was the primary outcome. Moreover, the day of the setup of the regular cycle and the day of the establishment of 3 regular cycles were observed as secondary outcomes. The first day of diestrus or metestrus of the first cycle in the 3 consecutive regular estrous cycles was determined as the day of the setup of the regular cycle^[7]. The last day of diestrus of the last cycle in the 3 consecutive regular estrous cycles was determined as the day of establishment of 3 regular cycles^[9].
(§4) Data were presented as means±standard deviation. Statistical analysis was performed on raw data using one-way analysis of variance (ANOVA). Comparisons among groups were made using the post hoc Tukey-HSD test. Day of vaginal opening, day of setup of regular cycle and day of establishment of 3 regular cycles were analyzed using survival analysis and were compared using the log-rank test. A two-tailed p-value<0.05 was considered significant.

[3] = tested on: mice (recipient) raised in a specific-pathogen free environment; assay: Animal Experiment 3: fecal microbiota transplantation (FMT), day of vaginal opening; format: in vivo; details: Danazol group, n = 6
Description: In this experiment, the fecal material collected in Experiment 2 (from donor) was transplanted to mice (recipient) raised in a specific-pathogen free environment. Pathogen free mice model was established by feeding 25 mL of cocktail antibiotics, which contain 50 mg of ampicillin, 50 mg of neomycin, 50 mg of metronidazole, and 25 mg of vancomycin.
as §4

precocious puberty = assay: Taiwan Puberty Longitudinal Study cohort: sweetener intake and risk of precocious puberty (logistic regression); format: in vivo, human; details: for OR of precocious puberty: adjusted model
Description: The Taiwan Puberty Longitudinal Study (TPLS) was a multicenter project involving several hospitals in Taiwan. A total of more than 2,000 female adolescents aged from 6 to 16 years and male adolescents aged from 9 to 17 years had been recruited from pediatric endocrine clinics since 2018. Anthropometric measurements, pubertal stages exams, and interviews about physical activity and sleep quality were conducted quarterly. A comprehensive evaluation, including 24-hour food recall, fasting blood test, and parental interviews about their children's physical activity and sleep quality, was performed annually. Participants were followed up until reaching the late pubertal stages. Thorough market search, a comprehensive and semiquantitative food frequency questionnaire (FFQ), was created for glycyrrhizin intake evaluation in advance. A total of 39 glycyrrhizin-containing food and beverage products were listed in this non-nutritive sweetener food frequency questionnaire ([…])^[1]. The questionnaire was used to screen the level of glycyrrhizin consumption. The interval scale for frequency was measured as never or a number of times per day or per week. Glycyrrhizin consumption was described as the proportion relative to acceptable daily intake (ADI) set by the Joint FAO/WHO Expert Committee on Food Additives[2]. The glycyrrhizin exposure dose in % ADI was finally categorized as tertiles, ranging from T1 (0 to 0.0006), T2 (0.0006 to 0.002) to T3 (>0.002). […] Most of the added sugar came from sugar-sweetened beverages (SSB). The added-sugar exposure dose in % ADI was also categorized as tertiles, ranging from T1 (0 to 0.0013), T2 (0.0013 to 0.0044) to T3 (>0.0044). Precocious puberty (PP) was diagnosed in the presence of the following criteria: secondary sexual characteristics happen before the age of 8 years old, bone age advance greater than 2 years above chronological age, and peak luteinizing hormone (LH)≥5 after the gonadotropin-releasing hormone (GnRH) stimulation test^[3]. Body mass index (BMI) was calculated as weight in kilograms divided by height in meters squared and was then transformed into z-scores (zBMI) based on age- and sex-related reference charts for Taiwanese children^[4]. Participants were asked for their habitual activities, and the amount of time they spend for specific physical activities. The intensity of each activity was described as metabolic equivalent of task (MET)^[5]. Daily metabolic equivalent value (METD) was calculated by summarizing mean of the standard MET of each activity multiplied by the average daily duration. The sleep quality scores, ranging from 0 to 21, were assessed by the Pittsburgh Sleep Quality Index (PSQI) through a self-reported questionnaire^[6]. The total energy intake daily in kcal was estimated by the summary of energy intake from three major macronutrients, including carbohydrates, fat, and proteins. Parental education was assessed by interviews and classified as “senior high school and below,” “college,” or “graduate school and higher.” Odds ratios (ORs) for precocious puberty in participants consumed different doses of glycyrrhizin and added sugar were calculated from generalized linear models with logistic regression using glm( ) function. Models were adjusted for gender, age, zBMI, exercise time, sleep quality, total energy intake, and parental education. Atwo-tailed p-value of <0.05 was considered statistically significant. All analyses were performed using R software (version 4.0.2; RStudio; R Foundation for Statistical Computing, Inc., Boston, MA, USA).

[4] = tested on: female neonate Sprague-Dawley rats; assay: Body weight, reproductive organ coefficient weights, routine laboratory safety tests and TyG index in rats; format: in vivo
Description: as §2, §1
On the days of the vaginal opening in the model group, all animals were exsanguinated with normal saline following anesthesia. After perfusion, the hypothalamus was retrieved. Half of them were fixed in the 10% neutral-buffered formalin for IHC experiments, while the remaining half was embedded in RNAprotect reagent for qPCR experiments later. […]
Blood glucose in rodents was measured using the BioSystem glucose GOD/Peroxidase kit. LH levels were measured using the Enzo LH ELISA kit following the manufacturer's instructions. […]
Data were presented as means±standard deviation. […] Day of vaginal opening, day of setup of regular cycle and day of establishment of 3 regular cycles were analyzed using survival analysis and were compared using the log-rank test. […]

[5] = MAG solubility in sterilized water; format: physicochemical; details: MAG powder mixed with sterilized water
Description: as §3

[6] = Danazol group (single s.c. 300 μg danazol), n = 6
[7] = Danazol + High-MAG (400 μg/kg/day, oral gavage), n = 15
[8] = Danazol + Low-MAG (100 μg/kg/day, oral gavage), n = 8
[9] = Danazol + Med-MAG (200 μg/kg/day, oral gavage), n = 8
[10] = MAG group (no danazol), oral gavage since PND 13, n = 5

For `C#C[C@]1(O)CC[C@H]2[C@@H]3CCC4=Cc5oncc5C[C@]4(C)[C@H]3CC[C@@]21C` [Danazol, danazol, reference compound], the Serum estrogen level ([1]; Danazol group) was “trend towards higher values”, the “Day of establishment of 3 regular cycles” value [2, 6] was 38.17 ± 1.17 and the “Day of setup of regular cycle” value [2, 6] was 27.67 ± 1.51. For the same compound, the “Day of vaginal opening” value [2, 6] was 23.00 ± 0.00 and the “Day of vaginal opening (PND)” value [3] was 24.33 PND.

In the case of `CC1(C)[C@@H](O[C@H]2O[C@H](C(=O)O)[C@@H](O)[C@H](O)[C@H]2O[C@@H]2O[C@H](C(=O)O)[C@@H](O)[C@H](O)[C@H]2O)CC[C@]2(C)[C@H]3C(=O)C=C4[C@@H]5C[C@@](C)(C(=O)O)CC[C@]5(C)CC[C@@]4(C)[C@]3(C)CC[C@@H]12` [Glycyrrhizin, glycyrrhizin], the “OR of precocious puberty” value (precocious puberty; Female, exposure tertile T1 vs no intake) is reported as 0.479, the “OR of precocious puberty” value (precocious puberty; Female, exposure tertile T2 vs no intake) is reported as 0.826 and the “OR of precocious puberty” value (precocious puberty; Female, exposure tertile T3 vs no intake) is reported as 0.969. The “OR of precocious puberty” value (precocious puberty; Male, exposure tertile T1 vs no intake) was 1.384, the “OR of precocious puberty” value (precocious puberty; Male, exposure tertile T2 vs no intake) was 0.422 and the “OR of precocious puberty” value (precocious puberty; Male, exposure tertile T3 vs no intake) was 0.656. The “OR of precocious puberty” value (precocious puberty; Total, exposure tertile T1 (% ADI: glycyrrhizin 0 to 0.0006, added sugar 0 to 0.0013) vs no intake) was 0.607, the “OR of precocious puberty” value (precocious puberty; Total, exposure tertile T2 (% ADI: glycyrrhizin 0.0006 to 0.002, added sugar 0.0013 to 0.0044) vs no intake) was 0.687 and the “OR of precocious puberty” value (precocious puberty; Total, exposure tertile T3 (% ADI: glycyrrhizin >0.002, added sugar >0.0044) vs no intake) was 0.857. For the same compound, the “Risk of PP after full adjustment” value (precocious puberty; human cohort, consumption vs no intake) was “reduce the risk of PP”.

With `CC1(C)[C@@H](O[C@H]2O[C@H](C(=O)O)[C@@H](O)[C@H](O)[C@H]2O[C@@H]2O[C@H](C(=O)O)[C@@H](O)[C@H](O)[C@H]2O)CC[C@]2(C)[C@H]3C(=O)C=C4[C@@H]5C[C@@](C)(C(=O)O)CC[C@]5(C)CC[C@@]4(C)[C@]3(C)CC[C@@H]12.N` [MAG, monoammonium glycyrrhizinate] the Serum estrogen level ([1]; High-MAG group (danazol + 400 μg/kg/day)) was “trend towards higher values”, the “Day of establishment of 3 regular cycles” value [2, 7] was 41.47 ± 2.85 and the “Day of setup of regular cycle” value [2, 7] was 28.93 ± 3.62. The “Day of vaginal opening” value [2, 7] was 24.00 ± 2.45, the “Day of establishment of 3 regular cycles” value [2, 8] was 44.13 ± 3.68 and the “Day of setup of regular cycle” value [2, 8] was 31.50 ± 3.63. For the same compound, the “Day of vaginal opening” value [2, 8] was 25.13 ± 3.60, the “Day of establishment of 3 regular cycles” value [2, 9] was 45.88 ± 4.19 and the “Day of setup of regular cycle” value [2, 9] was 33.38 ± 4.07. The “Day of vaginal opening” value [2, 9] was 27.50 ± 5.01, the “Day of establishment of 3 regular cycles” value [2, 10] was 49.00 ± 2.55 and the “Day of setup of regular cycle” value [2, 10] was 37.40 ± 3.44. The “Day of vaginal opening” value [2, 10] was 32.60 ± 2.07, the “Protection against PP over the whole estrous cycle” value ([2]; danazol-induced PP rats, most obvious effects with Low- and Medium-MAG groups) was “protected rats against PP following a dose-dependent manner” and the “Liver enzyme, renal function, albumin, electrolyte panel and lipid profiles” value ([4]; all p>0.05) was “no safety concerns”. The “Body weight during puberty” value ([4]; among groups, p=0.448) was “no difference”, the “Insulin resistance (TyG index) at the end of the experiment” value ([4]; between groups, High-MAG vs Medium-MAG p=0.048) was “did not differ between groups, with the exception of a higher value in High-MAG than that of Medium-MAG” and the MAG solubility [5] was 20 mg/mL.
